Toxic doses and inconclusive results are not listed. How the source made its calls: active means survival T/C of 150% or more; inactive means T/C below 125% in these data.
System: CD2F1 mice, L1210 leukemia ip, survival T/C
Test: NCI In Vivo Anticancer Drug Screen. Data for tumor model L1210 Leukemia (intraperitoneal) in CD2F1 (CDF1) mice
Details: higher = longer survival
Method in brief: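 Vehicle-treated tumor-bearing mice served as controls (C) for compound-treated mice (T). Reported figure is T divided by C.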

[1] = endpoint: mean survival time, dose: 100.0 mg/kg/injection, schedule: Q04DX003 (ip), vehicle: saline with Tween-80
[2] = endpoint: mean survival time, dose: 200.0 mg/kg/injection, schedule: Q04DX003 (ip), vehicle: saline with Tween-80
[3] = endpoint: mean survival time, dose: 400.0 mg/kg/injection, schedule: Q04DX003 (ip), vehicle: saline with Tween-80
[4] = endpoint: mean survival time, dose: 100.0 mg/kg/injection, schedule: Q01DX001 (ip), vehicle: saline with Tween-80
[5] = endpoint: mean survival time, dose: 100.0 mg/kg/injection, schedule: Q01DX009 (ip), vehicle: saline with Tween-80
[6] = endpoint: mean survival time, dose: 200.0 mg/kg/injection, schedule: Q01DX001 (ip), vehicle: saline with Tween-80
[7] = endpoint: mean survival time, dose: 200.0 mg/kg/injection, schedule: Q01DX009 (ip), vehicle: saline with Tween-80
[8] = endpoint: mean survival time, dose: 400.0 mg/kg/injection, schedule: Q01DX001 (ip), vehicle: saline with Tween-80
[9] = endpoint: mean survival time, dose: 50.0 mg/kg/injection, schedule: Q01DX009 (ip), vehicle: saline with Tween-80
[10] = endpoint: mean survival time, dose: 400.0 mg/kg/injection, schedule: Q01DX009 (ip), vehicle: saline with Tween-80
[11] = endpoint: mean survival time, dose: 100.0 mg/kg/injection, schedule: Q01DX001 (ip), vehicle: saline
[12] = endpoint: mean survival time, dose: 200.0 mg/kg/injection, schedule: Q01DX001 (ip), vehicle: saline
[13] = endpoint: mean survival time, dose: 400.0 mg/kg/injection, schedule: Q01DX001 (ip), vehicle: saline
[14] = endpoint: mean survival time, dose: 100.0 mg/kg/injection, schedule: Q04DX002 (ip), vehicle: saline with Tween-80

Measured: T/C

NC(COC(c1ccccc1)(c1ccccc1)c1ccccc1)C(=O)O (stereo unspecified)
active: endpoint: mean survival time, dose: 200.0 mg/kg/injection, schedule: Q01DX009 (ip), vehicle: saline 150 % of control
inactive: endpoint: mean survival time, dose: 25.0 mg/kg/injection, schedule: Q01DX009 (ip), vehicle: saline 103 % of control | endpoint: mean survival time, dose: 50.0 mg/kg/injection, schedule: Q01DX009 (ip), vehicle: saline 113 % of control | endpoint: mean survival time, dose: 300.0 mg/kg/injection, schedule: Q01DX009 (ip), vehicle: saline 122 % of control | endpoint: mean survival time, dose: 400.0 mg/kg/injection, schedule: Q01DX009 (ip), vehicle: saline 111 % of control

O=C(O)Cc1ccc(Cl)cc1
inactive: endpoint: mean survival time, dose: 75.0 mg/kg/injection, schedule: Q01DX009 (ip), vehicle: saline with Tween-80 96 % of control | endpoint: mean survival time, dose: 150.0 mg/kg/injection, schedule: Q01DX009 (ip), vehicle: saline with Tween-80 102 % of control | endpoint: mean survival time, dose: 300.0 mg/kg/injection, schedule: Q01DX009 (ip), vehicle: saline with Tween-80 88 % of control

O=P(Oc1cccc(Br)c1)(Oc1cccc(Br)c1)c1ccccc1
inactive: [1] 98 % of control | [2] 106 % of control | [3] 108 % of control

CSCCC(NC(C)=O)C(=O)O.CSCCC(NC(C)=O)C(=O)O.[NH-]C1CCCCC1[NH-].[Pt+2] (stereo unspecified)
inactive: endpoint: median survival time, dose: 3.12 mg/kg/injection, schedule: Q04DX003 (ip), vehicle: saline 100 % of control | endpoint: median survival time, dose: 6.25 mg/kg/injection, schedule: Q04DX003 (ip), vehicle: saline 100 % of control | endpoint: median survival time, dose: 12.5 mg/kg/injection, schedule: Q04DX003 (ip), vehicle: saline 97 % of control | endpoint: median survival time, dose: 25.0 mg/kg/injection, schedule: Q04DX003 (ip), vehicle: saline 107 % of control | endpoint: median survival time, dose: 50.0 mg/kg/injection, schedule: Q04DX003 (ip), vehicle: saline 93 % of control | endpoint: median survival time, dose: 100.0 mg/kg/injection, schedule: Q04DX003 (ip), vehicle: saline 98 % of control | endpoint: median survival time, dose: 200.0 mg/kg/injection, schedule: Q04DX003 (ip), vehicle: saline 97 % of control

CCOC(=O)Cc1ccnc(C)c1
inactive: [4] 93 % of control | [5] 100 % of control | [6] 94 % of control | [7] 103 % of control | [8] 96 % of control

OC(c1ccccc1)(C1SCCCS1)C1SCCCS1
inactive: [9] 94 % of control | [5] 97 % of control | [7] 94 % of control

c1ccc2c(c1)sc1[n+]2CCS1
inactive: endpoint: mean survival time, dose: 75.0 mg/kg/injection, schedule: Q01DX001 (ip), vehicle: saline 113 % of control

CC(=O)N(C)c1ccc(NC(=O)Nc2ccc(Cl)cc2C)cc1
inactive: [9] 91 % of control | [5] 88 % of control | [7] 91 % of control

Cc1ccc(NCCNCC(C)(C)O)c2c(=O)c3ccccc3sc12
inactive: endpoint: mean survival time, dose: 12.5 mg/kg/injection, schedule: Q04DX003 (ip), vehicle: saline 100 % of control | endpoint: mean survival time, dose: 25.0 mg/kg/injection, schedule: Q04DX003 (ip), vehicle: saline 103 % of control | endpoint: mean survival time, dose: 50.0 mg/kg/injection, schedule: Q01DX001 (ip), vehicle: saline 93 % of control | endpoint: mean survival time, dose: 50.0 mg/kg/injection, schedule: Q04DX003 (ip), vehicle: saline 92 % of control

CCCCCCCCCC1=NC(C)(C)CN1CC(C)O (stereo unspecified)
inactive: endpoint: mean survival time, dose: 5.0 mg/kg/injection, schedule: Q01DX009 (ip), vehicle: saline with Tween-80 91 % of control | endpoint: mean survival time, dose: 10.0 mg/kg/injection, schedule: Q01DX009 (ip), vehicle: saline with Tween-80 102 % of control | endpoint: mean survival time, dose: 20.0 mg/kg/injection, schedule: Q01DX009 (ip), vehicle: saline with Tween-80 91 % of control

COC(=O)CCC(=O)Nc1ccccc1C(C)=O
inactive: [5] 101 % of control | [7] 104 % of control | [10] 106 % of control

O=C(O)CCCc1cc(O)c2c(c1O)C(=O)c1ccccc1C2=O
inactive: endpoint: mean survival time, dose: 50.0 mg/kg/injection, schedule: Q04DX003 (ip), vehicle: saline with Tween-80 120 % of control | [1] 104 % of control | [2] 101 % of control

Cc1ccc2c(c1)C(=O)N(CC[P+](c1ccccc1)(c1ccccc1)c1ccccc1)C2=O
inactive: endpoint: mean survival time, dose: 0.39 mg/kg/injection, schedule: Q01DX009 (ip), vehicle: Klucel (hydroxypropylcellulose) (HPC) 105 % of control | endpoint: mean survival time, dose: 0.78 mg/kg/injection, schedule: Q01DX009 (ip), vehicle: Klucel (hydroxypropylcellulose) (HPC) 100 % of control | endpoint: mean survival time, dose: 1.56 mg/kg/injection, schedule: Q01DX009 (ip), vehicle: Klucel (hydroxypropylcellulose) (HPC) 112 % of control | endpoint: mean survival time, dose: 3.12 mg/kg/injection, schedule: Q01DX009 (ip), vehicle: Klucel (hydroxypropylcellulose) (HPC) 103 % of control | endpoint: mean survival time, dose: 6.25 mg/kg/injection, schedule: Q01DX009 (ip), vehicle: Klucel (hydroxypropylcellulose) (HPC) 105 % of control | endpoint: mean survival time, dose: 12.5 mg/kg/injection, schedule: Q01DX009 (ip), vehicle: Klucel (hydroxypropylcellulose) (HPC) 101 % of control | endpoint: mean survival time, dose: 25.0 mg/kg/injection, schedule: Q01DX009 (ip), vehicle: Klucel (hydroxypropylcellulose) (HPC) 105 % of control

CCN(C(=O)C(F)(F)F)C(C)(C)C(SSSC(c1ccc(Cl)cc1)C(C)(C)N(CC)C(=O)C(F)(F)F)c1ccc(Cl)cc1 (stereo unspecified)
inactive: endpoint: mean survival time, dose: 100.0 mg/kg/injection, schedule: Q04DX003 (ip), vehicle: saline 103 % of control | endpoint: mean survival time, dose: 200.0 mg/kg/injection, schedule: Q04DX003 (ip), vehicle: saline 105 % of control | endpoint: mean survival time, dose: 400.0 mg/kg/injection, schedule: Q04DX003 (ip), vehicle: saline 86 % of control

O=C1C(Br)=CC(Br)(Br)C=C1Br
inactive: [5] 88 % of control | [7] 91 % of control | [10] 86 % of control

NC1=C(Br)C(=O)C(=O)c2ccccc21
inactive: [4] 101 % of control | [6] 101 % of control | [8] 97 % of control

O=C(O)/C=N/NS(=O)(=O)Cc1ccccc1
inactive: endpoint: mean survival time, dose: 12.5 mg/kg/injection, schedule: Q04DX003 (ip), vehicle: other 102 % of control | endpoint: mean survival time, dose: 25.0 mg/kg/injection, schedule: Q04DX003 (ip), vehicle: other 113 % of control | endpoint: mean survival time, dose: 50.0 mg/kg/injection, schedule: Q04DX003 (ip), vehicle: other 117 % of control | endpoint: mean survival time, dose: 100.0 mg/kg/injection, schedule: Q04DX003 (ip), vehicle: other 117 % of control | endpoint: mean survival time, dose: 200.0 mg/kg/injection, schedule: Q04DX003 (ip), vehicle: other 122 % of control | endpoint: mean survival time, dose: 400.0 mg/kg/injection, schedule: Q04DX003 (ip), vehicle: other 111 % of control

NC(=O)NC(S(=O)(=O)O)S(=O)(=O)O
inactive: [11] 96 % of control | [12] 101 % of control | [13] 101 % of control

Cc1c2ccccc2c(CSCC(N)C(=O)O)c2ccccc12 (stereo unspecified)
inactive: [1] 89 % of control | [2] 107 % of control | [3] 98 % of control

O=C(N/C=C\NC(=O)Nc1cccc(Cl)c1)Nc1cccc(Cl)c1
inactive: [14] 90 % of control | endpoint: mean survival time, dose: 200.0 mg/kg/injection, schedule: Q04DX002 (ip), vehicle: saline with Tween-80 90 % of control | endpoint: mean survival time, dose: 400.0 mg/kg/injection, schedule: Q04DX002 (ip), vehicle: saline with Tween-80 98 % of control

CN1CCCN(C)C1c1cc([N+](=O)[O-])ccc1O
inactive: endpoint: mean survival time, dose: 6.25 mg/kg/injection, schedule: Q01DX009 (ip), vehicle: saline sonified 100 % of control | endpoint: mean survival time, dose: 6.25 mg/kg/injection, schedule: Q04DX003 (ip), vehicle: saline sonified 106 % of control | endpoint: mean survival time, dose: 12.5 mg/kg/injection, schedule: Q01DX009 (ip), vehicle: saline sonified 98 % of control | endpoint: mean survival time, dose: 12.5 mg/kg/injection, schedule: Q04DX003 (ip), vehicle: saline sonified 101 % of control | endpoint: mean survival time, dose: 25.0 mg/kg/injection, schedule: Q01DX009 (ip), vehicle: saline sonified 89 % of control | endpoint: mean survival time, dose: 25.0 mg/kg/injection, schedule: Q04DX003 (ip), vehicle: saline sonified 98 % of control

Cc1ccc(S(=O)(=O)ON/N=C2\C(=O)C3CCC2C3)cc1 (stereo unspecified)
inactive: endpoint: mean survival time, dose: 25.0 mg/kg/injection, schedule: Q04DX002 (ip), vehicle: saline with Tween-80 100 % of control | endpoint: mean survival time, dose: 50.0 mg/kg/injection, schedule: Q04DX002 (ip), vehicle: saline with Tween-80 96 % of control | [14] 112 % of control

CCN=C(N)/N=C(\N)C(Cl)(Cl)Cl
inactive: [11] 101 % of control | [12] 96 % of control | [13] 90 % of control
